# Source: the supplement of paper PMC10307832
# Compound: O=C1NC(=O)[C@@H](c2cn3c4c(cccc24)CCC3)[C@@H]1c1c[nH]c2ccccc12 [Tivantinib] + Cc1cc(Nc2cc(N3CCN(C)CC3)nc(Sc3ccc(NC(=O)C4CC4)cc3)n2)n[nH]1 [Tozasertib] (partner 0.1 µM)
# Assay: relative viability (nuclei count vs DMSO), 5 days (fraction); higher = more cells survive
# Conditions: first compound 0.03162 µM
# How it was run: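 Lung cancer cell lines in 1536-well plates got either a single drug or a fixed anchor-drug dose together with five library-drug doses (not always all listed) in √10 steps, by pin tool, on the day after seeding. Nuclei were counted after 5 days, and relative viability is the treated-to-vehicle ratio of nuclei counts. Values are medians of duplicate plates.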
row,Cell Line,relative viability
1,NCI-H23,0.359
2,NCI-H1915,0.412
3,NCI-H1437,0.386
4,NCI-H322M,0.458
5,NCI-H2085,0.798
6,NCI-H1793,0.329
7,PC-3 [JPC-3],0.902
8,EKVX,0.346
9,LCLC-103H,0.493
10,NCI-H1650,0.467
11,NCI-H1944,0.232
12,NCI-H1993,0.595
13,SK-LU-1,0.357
14,ABC-1,0.155
15,NCI-H358,0.0982

# Same assay, conditions: first compound 0.1 µM
row,Cell Line,relative viability
1,NCI-H441,0.552
2,LOU-NH91,0.593
3,NCI-H2023,0.268
4,A-427,0.198
5,NCI-H460,0.368
6,NCI-H727,0.463
7,NCI-H1755,0.507
8,NCI-H520,0.395
9,NCI-H2405,0.756
10,SW 1573,0.177
11,NCI-H1395,0.718
12,201T,0.919
13,NCI-H1975,0.645
14,HOP-62,0.385
15,NCI-H2347,0.53
16,NCI-H1355,0.541
17,NCI-H650,0.802
18,CAL-12T,0.259

row,Cell Line,relative viability
1,NCI-H1666,0.606
2,H3255,0.535
3,NCI-H23,0.423
4,NCI-H1915,0.422
5,NCI-H1437,0.391
6,NCI-H322M,0.502
7,NCI-H2085,0.755
8,NCI-H1793,0.353
9,PC-3 [JPC-3],0.945
10,EKVX,0.421
11,LCLC-103H,0.474
12,NCI-H1650,0.357
13,NCI-H1944,0.264
14,NCI-H1993,0.543
15,SK-LU-1,0.312
16,ABC-1,0.215
17,NCI-H358,0.0902

# Same assay, conditions: first compound 0.3162 µM
row,Cell Line,relative viability
1,NCI-H441,0.474
2,LOU-NH91,0.537
3,NCI-H2023,0.308
4,A-427,0.169
5,NCI-H460,0.299
6,NCI-H727,0.515
7,NCI-H1755,0.608
8,NCI-H520,0.434
9,NCI-H2405,0.707
10,SW 1573,0.127
11,NCI-H1395,0.689
12,201T,0.88
13,NCI-H1975,0.714
14,HOP-62,0.377
15,NCI-H2347,0.624
16,NCI-H1355,0.489

row,Cell Line,relative viability
1,NCI-H650,0.585
2,CAL-12T,0.293
3,NCI-H1666,0.526
4,NCI-H23,0.308
5,NCI-H1915,0.391
6,NCI-H1437,0.422
7,NCI-H2085,0.749
8,NCI-H1793,0.222
9,PC-3 [JPC-3],0.705
10,LCLC-103H,0.374
11,NCI-H1650,0.434
12,NCI-H1944,0.204
13,NCI-H1993,0.51
14,SK-LU-1,0.323
15,ABC-1,0.223
16,NCI-H358,0.0802
